Results: patent US20220402948A1, “EGFR INHIBITOR, COMPOSITION AND PREPARATION METHOD THEREFOR” (BETTA PHARMACEUTICALS CO., LTD., priority 2019, published 2022)
Like-named read-outs stand apart in the source and are kept apart here.

Columns and labels:
EGFRΔ19del/T790M/C797S = EGFRΔ19del/T790M/C797S (Homo sapiens, UniProt P00533, T790M/C797S, form not given); assay: EGFR Δ19del/T790M/C797S kinase test (mobility variation analysis, Caliper EZ Reader); format: biochemical; details: kinase enzymatic activity, Table 1
Method in brief: (§1)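 Read-out is substrate-to-product conversion by mobility shift, stopped after incubation at room temperature with ATP and substrate, following a 10-minute room-temperature compound–enzyme pre-incubation. IC50 obtained by four-parameter variable-slope fitting of inhibition normalized between enzyme-free and uninhibited controls.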

EGFR WT = EGFR WT (Homo sapiens, UniProt P00533); assay: EGFR WT kinase test (mobility variation analysis, Caliper EZ Reader); format: biochemical; details: kinase enzymatic activity, Table 1
Method in brief: as §1

IGF1R = IGF1R (Homo sapiens, UniProt P08069); assay: IGF1R kinase test (mobility variation analysis, Caliper EZ Reader); format: biochemical; details: kinase enzymatic activity, Table 1; read-out: EGFR IGF1R IC50
Sequence of IGF1R (P08069 31-1367, species assumed): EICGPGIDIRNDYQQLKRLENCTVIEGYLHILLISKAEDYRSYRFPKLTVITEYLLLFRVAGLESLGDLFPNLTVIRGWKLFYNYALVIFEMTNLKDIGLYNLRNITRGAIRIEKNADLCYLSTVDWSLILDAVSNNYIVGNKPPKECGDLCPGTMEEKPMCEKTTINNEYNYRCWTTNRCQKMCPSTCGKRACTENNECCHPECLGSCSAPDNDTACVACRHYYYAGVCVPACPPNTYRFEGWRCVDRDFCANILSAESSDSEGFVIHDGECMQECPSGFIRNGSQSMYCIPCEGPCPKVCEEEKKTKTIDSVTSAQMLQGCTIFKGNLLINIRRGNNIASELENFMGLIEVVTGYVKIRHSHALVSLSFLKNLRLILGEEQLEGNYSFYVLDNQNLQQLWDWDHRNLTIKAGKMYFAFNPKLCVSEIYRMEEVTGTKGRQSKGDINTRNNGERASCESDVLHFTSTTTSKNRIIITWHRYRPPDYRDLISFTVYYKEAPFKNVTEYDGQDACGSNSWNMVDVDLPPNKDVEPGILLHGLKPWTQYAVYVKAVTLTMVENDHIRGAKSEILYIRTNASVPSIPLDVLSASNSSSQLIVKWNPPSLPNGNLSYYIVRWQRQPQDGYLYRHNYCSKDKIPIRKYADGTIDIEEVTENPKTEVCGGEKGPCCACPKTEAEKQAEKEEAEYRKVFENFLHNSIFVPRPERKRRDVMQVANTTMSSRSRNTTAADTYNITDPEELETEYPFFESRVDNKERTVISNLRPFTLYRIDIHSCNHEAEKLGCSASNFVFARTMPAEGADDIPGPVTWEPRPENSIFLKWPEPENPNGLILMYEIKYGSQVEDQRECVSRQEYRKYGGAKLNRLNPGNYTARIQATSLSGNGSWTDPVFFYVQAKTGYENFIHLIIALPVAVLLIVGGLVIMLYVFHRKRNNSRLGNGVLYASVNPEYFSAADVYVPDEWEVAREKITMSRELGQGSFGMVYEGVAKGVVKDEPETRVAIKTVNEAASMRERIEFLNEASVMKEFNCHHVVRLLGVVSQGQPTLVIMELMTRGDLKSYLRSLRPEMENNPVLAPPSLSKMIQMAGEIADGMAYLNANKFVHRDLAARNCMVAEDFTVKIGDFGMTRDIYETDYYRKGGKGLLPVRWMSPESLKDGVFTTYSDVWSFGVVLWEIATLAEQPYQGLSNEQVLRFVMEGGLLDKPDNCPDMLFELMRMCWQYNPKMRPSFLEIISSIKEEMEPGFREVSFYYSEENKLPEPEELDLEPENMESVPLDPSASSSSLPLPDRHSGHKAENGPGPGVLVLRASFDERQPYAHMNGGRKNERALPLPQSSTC
Method in brief: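 Mobility-shift readout of substrate conversion, normalised to positive (no compound) and negative (no kinase) controls, gives % inhibition and IC50 by four-parameter fit. Compounds, 3-fold dilutions over 10 concentrations starting at 3000 nM, preincubated 10 min with kinase before ATP/substrate start; room temperature.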

[1] = target: Ba/F3 cells with EGFR Δ19del/T790M/C797S mutation gene stably overexpressed (Homo sapiens, UniProt P00533, T790M/C797S, cells depend on it, form not given); assay: Ba/F3-Δ19del/T790M/C797S cell proliferation assay (CellTiter Glo, 72 hours); format: cell-based; details: Table 2, read-out: EGFR Δ19del/T790M/C797S IC50
Method in brief: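 Ba/F3 cells stably overexpressing wild-type EGFR or EGFR Δ19del/T790M/C797S were seeded at 2000 cells/well and incubated 72 h with compound. Viability was read by CellTiter-Glo luminescence, and IC50 came from a four-parameter logistic fit of signal against log concentration.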

A431 = A431 cell proliferation assay (CellTiter Glo, 72 hours); format: cell-based; details: cell proliferation, A431, 72 hours, Table 2, read-out: A431 IC50
Method in brief: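 Luminescence (CellTiter-Glo) after 72 h treatment gives viability, fitted by nonlinear regression to yield IC50. Cells seeded at 2000 per well; nine 3-fold concentrations from 1000 nM, DMSO final 0.1% (0.5% for certain compounds).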

[2] = target: Ba/F3-EGFR wild-type cell line (Homo sapiens, UniProt P00533); assay: Ba/F3-EGFR wild-type cell proliferation assay (CellTiter Glo, 72 hours); format: cell-based; details: Table 2, read-out: EGFR WT IC50
Method: Cell line: Ba/F3 cells with EGFR Δ19del/T790M/C797S mutation gene stably overexpressed named Ba/F3-Δ119del/T90M/C797S, and A431 and Ba/F3-EGFR wild-type cell line.
a) Centrifuge the growth cells in logarithmic phase at 1000 rpm for 5 minutes, resuspend the cells in culture medium, and then count the cells;
b) Inoculate the cells into a 96-well cell culture plate with a density of 2000 cells/well;
b) Incubate cells in an incubator for another 72 hours.
a) Take out the 96-well cell culture plate and add 50 μl CTG reagent (CellTiter Glo kit, promega, Cat #G7573);
b) Shake the plate for 2 minutes and let cool at room temperature for 10 minutes;
c) Read luminous signal value with PerkinElmer reader,
Analysis of Experimental Data
The data were analyzed by GraphPad Prism 6.0 software to obtain the fitting curve of compound activity.
Y=Min+(Max−Min)/(1+10^((Log IC50−X)*slope));
X: Logarithm of compound concentration; Y: luminous signal.

Molecule	IC50 (EGFRΔ19del/T790M/C797S)	IC50 (EGFR WT)	IC50 (IGF1R)	GI50 [1]	IC50 (A431; Homo sapiens, A-431, 72 h)	GI50 [2]	IC50 (A431)
CCc1cc(Nc2ncc(Br)c(Nc3ccc(-c4ccc(C)nc4)cc3P(C)(C)=O)n2)c(OC)cc1N1CCC(N2CCN(C)CC2)CC1 [Compound 82, (2-((5-Bromo-2-((5-ethyl-2-methoxy-4-(4-(4-methylpiperazin-1-yl)piperidin-1-yl)phenyl)amino)pyrimidin-4-yl)amino)-5-(6-methylpyridin-3-yl)phenyl)dimethylphosphine oxide]	0.5 nM	29.1 nM	179 nM	27.6 nM	1620 nM	–	–
CCc1cc(Nc2ncc(Br)c(Nc3ccc(-c4ccc(C)cn4)cc3P(C)(C)=O)n2)c(OC)cc1N1CCC(N2CCN(C)CC2)CC1 [Compound 83, (2-((5-Bromo-2-((5-ethyl-2-methoxy-4-(4-(4-methylpiperazin-1-yl)piperidin-1-yl)phenyl)amino)pyrimidin-4-yl)amino)-5-(5-methylpyridin-2-yl)phenyl)dimethylphosphine oxide]	0.3 nM	29.4 nM	180 nM	20.1 nM	1430 nM	–	–
CCc1cc(Nc2ncc(Br)c(Nc3ccc(-c4cnn(C(C)C)n4)cc3P(C)(C)=O)n2)c(OC)cc1N1CCC(N2CCN(C)CC2)CC1 [Compound 85, (2-((5-Bromo-2-((5-ethyl-2-methoxy-4-(4-(4-methylpiperazin-1-yl)piperidin-1-yl)phenyl)amino)pyrimidin-4-yl)amino)-5-(2-isopropyl-2H-l,2,3-triazol-4-yl)phenyl)dimethylphosphine oxide]	–	–	–	28.6 nM	5770 nM	1120 nM	–
CCc1cc(Nc2ncc(Br)c(Nc3ccc(-n4cc(C)cn4)cc3P(C)(C)=O)n2)c(OC)cc1N1CCC(N2CCN(C)CC2)CC1 [Compound 86, (2-((5-Bromo-2-((5-ethyl-2-methoxy-4-(4-(4-methylpiperazin-1-yl)piperidin-1-yl)phenyl)amino)pyrimidin-4-yl)amino)-5-(4-methyl-1H-pyrazol-1-yl)phenyl)dimethylphosphine oxide]	0.7 nM	26.7 nM	219 nM	37.4 nM	1610 nM	–	–
CCc1cc(Nc2ncc(Br)c(Nc3ccc(-c4cnn(C)c4)cc3P(C)(C)=O)n2)c(OC)cc1N1CCC(N2CCCC2)CC1 [Compound K-001]	–	–	–	15.6 nM	371 nM	335 nM	–
CCn1cc(-c2cc(Nc3ncc(Br)c(Nc4ccc(-c5cc(C)n(C)n5)cc4P(C)(C)=O)n3)c(OC)cc2N2CCC(N3CCN(C)CC3)CC2)cn1 [Compound K-005, (2-((5-Bromo-2-((5-(1-ethyl-1H-pyrazol-4-yl)-2-methoxy-4-(4-(4-methylpiperazin-1-yl)piperidin-1-yl)phenyl)amino)pyrimidin-4-yl)amino)-5-(1,5-dimethyl-1H-pyrazol-3-yl)phenyl)dimethylphosphine oxide]	–	–	–	27.9 nM	415 nM	482 nM	–
CCc1cc(Nc2ncc(Br)c(Nc3ccc(-c4ncc(C(C)C)cn4)cc3P(C)(C)=O)n2)c(OC)cc1N1CCC(N2CCN(C)CC2)CC1 [Compound K-056, (2-((5-Bromo-2-((5-ethyl-2-methoxy-4-(4-(4-methylpiperazin-1-yl)piperidin-1-yl)phenyl)amino)pyrimidin-4-yl)amino)-5-(5-isopropylpyrimidin-2-yl)phenyl)dimethylphosphine oxide]	–	–	–	–	–	524 nM	–
CCOc1ncc(-c2ccc(Nc3nc(Nc4cc(CC)c(N5CCC(N6CCN(C)CC6)CC5)cc4OC)ncc3Br)c(P(C)(C)=O)c2)cn1 [Compound K-059, (2-((5-Bromo-2-((5-ethyl-2-methoxy-4-(4-(4-methylpiperazin-1-yl)piperidin-1-yl)phenyl)amino)pyrimidin-4-yl)amino)-5-(2-ethoxypyrimidin-5-yl)phenyl)dimethylphosphine oxide]	–	–	–	–	–	352 nM	–
CCc1cc(Nc2ncc(Cl)c(Nc3ccc(-c4nn(C)cc4C#N)cc3P(C)(C)=O)n2)c(OC)cc1N1CCC(N2CCN(C)CC2)CC1 [Compound K-060, 3-(4-((5-Chloro-2-((5-ethyl-2-methoxy-4-(4-(4-methylpiperazin-1-yl)piperidin-1-yl)phenyl)amino)pyrimidin-4-yl)amino)-3-(dimethylphosphineoxide)phenyl)-1-methyl-1H-pyrazol-4-carbonitrile]	–	–	–	–	–	293 nM	–
CCc1cc(Nc2ncc(Br)c(Nc3ccc(-c4cnc(C)c(C)n4)cc3P(C)(C)=O)n2)c(OC)cc1N1CCC(N2CCN(C)CC2)CC1 [Compound K-067, (2-((5-Bromo-2-((5-ethyl-2-methoxy-4-(4-(4-methylpiperazin-1-/l)piperidin-1-yl)phenyl)amino)pyrimidin-4-yl)amino)-5-(5,6-dimethylpyrazin-2-yl)phenyl)dimethylphosphine oxide]	–	–	–	–	–	417 nM	–
CCc1cc(Nc2ncc(Br)c(Nc3ccc(-c4ccc(C)nc4)cc3P(C)(C)=O)n2)c(OC)cc1N1CCC(N2CCN(C)CC2)CC1 [Compound K-070, (2-((5-Bromo-2-((5-ethyl-2-methoxy-4-(4-(4-methylpiperazin-1-yl)piperidin-1-yl)phenyl)amino)pyrimidin-4-yl)amino)-5-(6-methylpyridin-3-yl)phenyl)dimethylphosphine oxide]	–	–	–	–	–	238 nM	–
(2-((5-Bromo-2-((5-ethyl-2-methoxy-4-(4-(4-methylpiperazin-1-yl)piperidin-1-yl)phenyl)amino]amino]pyrimidin-4-yl)amino)-5-(4-methoxy-1H-pyrazol-1-yl)phenyl)dimethylphosphine oxide [Compound 50]	0.2 nM	32 nM	268 nM	19.1 nM	–	–	1510 nM

More lines, now with the values ahead:

IC50 (EGFRΔ19del/T790M/C797S)	IC50 (EGFR WT)	IC50 (IGF1R)	GI50 [1]	IC50 (A431; Homo sapiens, A-431, 72 h)	GI50 [2]	IC50 (A431)	Molecule
–	–	–	11.6 nM	1270 nM	180 nM	–	CCc1cc(Nc2ncc(Br)c(Nc3ccc(-c4cnn(C(F)F)n4)cc3P(C)(C)=O)n2)c(OC)cc1N1CCC(N2CCN(C)CC2)CC1 [Compound K-006, (2-((5-Bromo-2-((5-ethyl-2-methoxy-4-(4-(4-methylpiperazin-1-yl)piperidin-1-yl)phenyl)amino)pyrimidin-4-yl)amino)-5-(2-(difluoromethyl)-2H-1,2,3-triazol-4-yl)phenyl)dimethylphosphine oxide]
1.4 nM	1130 nM	394 nM	16.8 nM	–	150 nM	–	COc1cnn(-c2ccc(Nc3nc(Nc4cc(C)c(N5CCOCC5)c(OC)c4)ncc3Br)c(P(C)(C)=O)c2)c1 [Compound K-031, (2-((5-Bromo-2-((3-methoxy-5-methyl-4-morpholinophenyl)amino)pyrimidin-4-yl)amino)-5-(4-methoxy-1H-pyrazol-1-yl)phenyl)dimethylphosphine oxide]
–	–	–	1.4 nM	125 nM	15.8 nM	–	COc1cc(N2CCC(N3CCCCC3)CC2)c(-c2cnn(C)c2)cc1Nc1ncc(Br)c(Nc2ccc(-c3ccccc3)c(C)c2P(C)(C)=O)n1 [Compound K-051]
–	–	–	–	–	206 nM	–	CCc1cc(Nc2ncc(Br)c(Nc3ccc(-c4cnc(N(C)C)nc4)cc3P(C)(C)=O)n2)c(OC)cc1N1CCC(N2CCN(C)CC2)CC1 [Compound K-057, (2-((5-Bromo-2-((5-ethyl-2-methoxy-4-(4-(4-methylpiperazin-1-yl)piperidin-1-yl)phenyl)amino)pyrimidin-4-yl)amino)-5-(2-(dimethylamino)pyrimidin-5-yl)phenyl)dimethylphosphine oxide]
–	–	–	–	–	152 nM	–	CCc1cc(Nc2ncc(Br)c(Nc3ccc(-c4cnc(C5CC5)cn4)cc3P(C)(C)=O)n2)c(OC)cc1N1CCC(N2CCN(C)CC2)CC1 [Compound K-064, (2-((5-Bromo-2-((5-ethyl-2-methoxy-4-(4-(4-methylpiperazin-1-yl)piperidin-1-yl)phenyl)amino)pyrimidin-4-yl)amino)-5-(5-cyclopropylpyrazin-2-yl)phenyl)dimethylphosphine oxide]
–	–	–	–	–	132 nM	–	CCc1cc(Nc2ncc(Br)c(Nc3ccc(-c4cnc(C)cn4)cc3P(C)(C)=O)n2)c(OC)cc1N1CCC(N2CCN(C)CC2)CC1 [Compound K-065, (2-((5-Bromo-2-((5-ethyl-2-methoxy-4-(4-(4-methylpiperazin-1-yl)piperidin-1-yl)phenyl)amino)pyrimidin-4-yl)amino)-5-(5-methylpyrazin-2-yl)phenyl)dimethylphosphine oxide]
